Measured values from US10717716B2, “1,3,4-oxadiazole derivative compounds as histone deacetylase 6 inhibitor, and the pharmaceutical composition comprising the same” (Chong Kun Dang Pharmaceutical Corp., priority 2015, dated 2020).

Target: T1, human recombinant HDAC6 (Homo sapiens, UniProt Q9UBN7)
T1 construct: purchased Calbiochem 382180
T1 sequence (Q9UBN7 1-1215): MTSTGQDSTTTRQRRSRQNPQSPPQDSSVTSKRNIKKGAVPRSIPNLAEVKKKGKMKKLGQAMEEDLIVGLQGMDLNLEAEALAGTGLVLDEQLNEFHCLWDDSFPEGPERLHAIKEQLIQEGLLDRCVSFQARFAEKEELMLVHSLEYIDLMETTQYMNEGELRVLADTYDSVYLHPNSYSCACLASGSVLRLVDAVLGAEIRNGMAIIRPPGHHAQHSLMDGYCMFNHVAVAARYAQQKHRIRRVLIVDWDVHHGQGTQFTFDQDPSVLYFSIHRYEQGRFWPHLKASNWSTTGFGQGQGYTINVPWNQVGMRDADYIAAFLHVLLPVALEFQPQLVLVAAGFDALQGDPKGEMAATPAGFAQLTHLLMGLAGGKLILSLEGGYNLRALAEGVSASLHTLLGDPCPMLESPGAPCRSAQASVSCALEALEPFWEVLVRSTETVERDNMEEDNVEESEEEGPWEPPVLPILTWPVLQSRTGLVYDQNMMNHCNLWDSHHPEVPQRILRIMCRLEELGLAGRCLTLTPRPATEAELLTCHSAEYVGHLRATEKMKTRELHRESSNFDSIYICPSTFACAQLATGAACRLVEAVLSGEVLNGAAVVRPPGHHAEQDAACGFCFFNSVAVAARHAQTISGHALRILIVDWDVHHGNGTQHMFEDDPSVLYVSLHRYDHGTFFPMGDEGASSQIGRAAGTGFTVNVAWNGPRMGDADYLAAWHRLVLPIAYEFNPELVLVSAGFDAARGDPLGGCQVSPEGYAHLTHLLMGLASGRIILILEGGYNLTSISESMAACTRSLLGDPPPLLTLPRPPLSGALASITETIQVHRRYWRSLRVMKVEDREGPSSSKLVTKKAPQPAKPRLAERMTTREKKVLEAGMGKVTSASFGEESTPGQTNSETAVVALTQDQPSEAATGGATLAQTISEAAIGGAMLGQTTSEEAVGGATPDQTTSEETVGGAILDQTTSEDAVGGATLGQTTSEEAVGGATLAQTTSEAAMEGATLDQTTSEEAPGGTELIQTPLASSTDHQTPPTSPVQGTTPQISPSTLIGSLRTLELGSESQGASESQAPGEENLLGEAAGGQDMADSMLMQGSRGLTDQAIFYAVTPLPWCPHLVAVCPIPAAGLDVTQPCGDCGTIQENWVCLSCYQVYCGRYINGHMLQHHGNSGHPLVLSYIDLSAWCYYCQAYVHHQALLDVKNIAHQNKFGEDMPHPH
Experiment: HDAC6 enzyme activity inhibition assay (HDAC Fluorimetric Drug Discovery Kit)
Format: biochemical
Details: for HDAC6 selectivity (fold): HDAC6 over HDAC1; for IC50: human recombinant HDAC6, same protocol as HDAC1, read-out: HDAC6
How it was run: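 Human recombinant HDAC1 or HDAC6 (0.3 μg) reacted with 10 μM Fluor de Lys-SIRT1 substrate and 5-fold compound dilutions for 60 min at 30 °C. Developer II added for 30 min, fluorescence read at Ex 360/Em 460; IC50 calculated from the readings.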

Row | SMILES | HDAC6 selectivity (fold) | IC50
1 | CCN1CCN(CCCOc2ccc(N(Cc3ccc(-c4nnc(C(F)F)o4)cc3F)C(=O)N3CCS(=O)(=O)CC3)cc2)CC1 [Compound 21972, N-(4-(5-(difluoromethyl)-1,3,4-oxadiazol-2-yl)-2-fluorobenzyl)-N-(4-(3-(4-ethylpiperazin-1-yl)propoxy)phenyl)thiomorpholine-4-carboxamide 1,1-dioxide] | 38 fold | 0.266 µM
2 | O=C(N1CCN(C2COC2)CC1)N(Cc1ccc(-c2nnc(C(F)F)o2)cc1F)c1ccc(Cl)cc1 [Compound 21946, N-(4-Chlorophenyl)-N-(4-(5-(difluoromethyl)-1,3,4-oxadiazol-2-yl)-2-fluorobenzyl)-4-(oxetan-3-yl)piperazine-1-carboxamide] | 81 fold | 0.123 µM
3 | CCN1[C@H](C)CN(Cc2ccc(N(Cc3ccc(-c4nnc(C(F)F)o4)cc3F)C(=O)N3CCS(=O)(=O)CC3)cc2)C[C@@H]1C [Compound 21935, N-(4-(5-(difluoromethyl)-1,3,4-oxadiazol-2-yl)-2-fluorobenzyl)-N-(4-(((3S,5R)-4-ethyl-3,5-dimethylpiperazin-1-yl)methyl)phenyl)thiomorpholine-4-carboxamide 1,1-dioxide] | 38 fold | 0.265 µM
4 | CCN1CCN(C(=O)N(Cc2ccc(-c3nnc(C(F)F)o3)cn2)c2ccc(F)cc2)CC1 [Compound 21888, N-((5-(5-(Difluoromethyl)-1,3,4-oxadiazol-2-yl)pyridin-2-yl)methyl)-4-ethyl-N-(4-fluorophenyl)piperazine-1-carboxamide] | 388 fold | 0.026 µM
5 | O=C(NCc1ccccc1)N(Cc1ccc(-c2nnc(C(F)(F)F)o2)cc1)c1ccccc1 [Compound 21368, 3-Benzyl-1-phenyl-1-(4-(5-(trifluoromethyl)-1,3,4-oxadiazol-2-yl)benzyl)urea] | 24 fold | 0.42 µM
6 | O=C(N1CCS(=O)(=O)CC1)N(Cc1ccc(-c2nnc(C(F)F)o2)cc1F)c1ccc(F)c(Cl)c1 [Compound 21531, N-(3-chloro-4-fluorophenyl)-N-(4-(5-(difluoromethyl)-1,3,4-oxadiazol-2-yl)-2-fluorobenzyl)thiomorpholine-4-carboxamide 1,1-dioxide] | 769 fold | 0.013 µM
7 | O=C(N1CCS(=O)(=O)CC1)N(Cc1ccc(-c2nnc(C(F)F)o2)cc1F)c1ccc(CN2CC(F)(F)C2)cc1 [Compound 21914, N-(4-((3,3-difluoroazetidin-1-yl)methyl)phenyl)-N-(4-(5-(difluoromethyl)-1,3,4-oxadiazol-2-yl)-2-fluorobenzyl)thiomorpholine-4-carboxamide 1,1-dioxide] | 63 fold | 0.158 µM
8 | O=C(NCCN1CCN(c2ccc(F)cc2)CC1)N(Cc1ccc(-c2nnc(C(F)F)o2)cc1F)c1ccccc1 [Compound 22010, 1-(4-(5-(Difluoromethyl)-1,3,4-oxadiazol-2-yl)-2-fluorobenzyl)-3-(2-(4-(4-fluorophenyl)piperazin-1-yl)ethyl)-1-phenylurea] | 29 fold | 0.341 µM
9 | O=C(N1CCS(=O)(=O)CC1)N(Cc1ccc(-c2nnc(C(F)F)o2)cc1F)c1ccc(-c2cccnc2)cc1 [Compound 21518, N-(4-(5-(difluoromethyl)-1,3,4-oxadiazol-2-yl)-2-fluorobenzyl)-N-(4-(pyridin-3-yl)phenyl)thiomorpholine-4-carboxamide 1,1-dioxide] | 400 fold | 0.025 µM
10 | Cc1ccccc1N(Cc1ccc(-c2nnc(C(F)(F)F)o2)cc1)C(=O)N1CCS(=O)(=O)CC1 [Compound 21451, N-(o-tolyl)-N-(4-(5-(trifluoromethyl)-1,3,4-oxadiazol-2-yl)benzyl)thiomorpholine-4-carboxamide 1,1-dioxide] | 30 fold | 0.333 µM
11 | Cc1cccc(N(Cc2ccc(-c3nnc(C(F)F)o3)cc2F)C(=O)N2CC3(COC3)C2)c1 [Compound 21760, N-(4-(5-(difluoromethyl)-1,3,4-oxadiazol-2-yl)-2-fluorobenzyl)-N-(m-tolyl)-2-oxa-6-azaspiro[3.3]heptane-6-carboxamide] | 215 fold | 0.046 µM
12 | O=C(N1CCOCC1)N(Cc1ccc(-c2nnc(C(F)(F)F)o2)cc1)c1ccc(F)c(Cl)c1 [Compound 21594, N-(3-chloro-4-fluorophenyl)-N-(4-(5-(trifluoromethyl)-1,3,4-oxadiazol-2-yl)benzyl)morpholine-4-carboxamide] | 115 fold | 0.087 µM
13 | O=C(NCCN1CCN(CCc2ccccc2)CC1)N(Cc1ccc(-c2nnc(C(F)F)o2)cc1F)c1ccccc1 [Compound 22014, 1-(4-(5-(Difluoromethyl)-1,3,4-oxadiazol-2-yl)-2-fluorobenzyl)-3-(2-(4-phenethylpiperazin-1-yl)ethyl)-1-phenylurea] | 46 fold | 0.219 µM
14 | O=C(NCCN1CCOCC1)N(Cc1ccc(-c2nnc(C(F)F)o2)cc1F)c1ccccc1 [Compound 21982, 1-(4-(5-(Difluoromethyl)-1,3,4-oxadiazol-2-yl)-2-fluorobenzyl)-3-(2-morpholinoethyl)-1-phenylurea] | 96 fold | 0.104 µM
15 | O=C(N1CCOCC1)N(Cc1ccc(-c2nnc(C(F)F)o2)cc1F)c1ccc(Cl)cc1 [Compound 21849, N-(4-chlorophenyl)-N-(4-(5-(difluoromethyl)-1,3,4-oxadiazol-2-yl)-2-fluorobenzyl)morpholine-4-carboxamide] | 95 fold | 0.106 µM
16 | CCN1CCN(C(=O)N(Cc2ccc(-c3nnc(C(F)F)o3)cn2)c2cccc(OC)c2)CC1 [Compound 21891, N-((5-(5-(Difluoromethyl)-1,3,4-oxadiazol-2-yl)pyridin-2-yl)methyl)-4-ethyl-N-(3-methoxyphenyl)piperazine-1-carboxamide] | 174 fold | 0.057 µM
17 | O=C(N1CCCCC1)N(Cc1ccc(-c2nnc(C(F)(F)F)o2)cc1)c1ccccc1 [Compound 21351, N-phenyl-N-(4-(5-(trifluoromethyl)-1,3,4-oxadiazol-2-yl)benzyl)piperidine-1-carboxamide] | 38 fold | 0.261 µM
18 | O=C(NC1CCCCC1)N(Cc1ccc(-c2nnc(C(F)(F)F)o2)cc1)c1ccccc1 [Compound 21342, 3-Cyclohexyl-1-phenyl-1-(4-(5-(trifluoromethyl)-1,3,4-oxadiazol-2-yl)benzyl)urea] | 5 fold | 1.99 µM
19 | O=C(N1CCS(=O)(=O)CC1)N(Cc1ccc(-c2nnc(C(F)(F)F)o2)cc1F)c1ccc(OC(F)(F)F)cc1 [Compound 21513, N-(2-fluoro-4-(5-(trifluoromethyl)-1,3,4-oxadiazol-2-yl)benzyl)-N-(4-(trifluoromethoxy)phenyl)thiomorpholine-4-carboxamide 1,1-dioxide] | 47 fold | 0.212 µM
20 | C[C@@H]1CN(C(=O)N(Cc2ccc(-c3nnc(C(F)(F)F)o3)cc2)c2ccccc2)C[C@H](C)N1C [Compound 21386, (3R,5S)-3,4,5-Trimethyl-N-phenyl-N-(4-(5-(trifluoromethyl)-1,3,4-oxadiazol-2-yl)benzyl)piperazine-1-carboxamide] | 213 fold | 0.047 µM
21 | CCN1C[C@@H](C)N(Cc2ccc(N(Cc3ccc(-c4nnc(C(F)F)o4)cc3F)C(=O)N3CCS(=O)(=O)CC3)cc2)[C@@H](C)C1 [Compound 21934, N-(4-(5-(difluoromethyl)-1,3,4-oxadiazol-2-yl)-2-fluorobenzyl)-N-(4-(((2R,6S)-4-ethyl-2,6-dimethylpiperazin-1-yl)methyl)phenyl)thiomorpholine-4-carboxamide 1,1-dioxide] | 15 fold | 0.667 µM
22 | CN(C)[C@H]1CCN(C(=O)N(Cc2ccc(-c3nnc(C(F)(F)F)o3)cc2F)c2cccc(Cl)c2F)C1 [Compound 21644, (S)—N-(3-chloro-2-fluorophenyl)-3-(dimethylamino)-N-(2-fluoro-4-(5-(trifluoromethyl)-1,3,4-oxadiazol-2-yl)benzyl)pyrrolidine-1-carboxamide] | 74 fold | 0.135 µM
